US9174997B2, “4-(4-cyano-2-thioaryl)dihydropyrimidinones and use thereof” (Bayer Intellectual Property GmbH, priority 2007, dated 2015)

Experiments:
[1] = target: human neutrophil elastase (HNE) (Homo sapiens (Human), UniProt P08246); test: In vitro HNE inhibition assay; format: biochemical; conditions: HNE concentration of 80 pM; substrate MeOSuc-Ala-Ala-Pro-Val-AMC; 37° C. for 2 hours
Experimental: B-1. In Vitro HNE Inhibition Assay
The potency of the compounds of the invention is ascertained in an in vitro inhibition assay. The HNE-mediated amidolytic cleavage of a suitable peptide substrate leads in this connection to an increase in the fluorescent light. The signal intensity of the fluorescent light is directly proportional to the enzyme activity.
Enzyme ([…]; from Serva, Heidelberg) and substrate (20 μM MeOSuc-Ala-Ala-Pro-Val-AMC; from Bachem, Weil am Rhein) are incubated in an assay volume of in total 50 μl of assay buffer (0.1 M HEPES pH 7.4, 0.5 M NaCl, 0.1% w/v BSA, 1% v/v DMSO) in a 384-well microtiter plate in the presence and absence of the test substance at 37° C. for 2 hours. […] The IC50 values are determined by plotting the intensity of the fluorescent light against the active substance concentration.

rat hepatocytes = test: Hepatocyte assay to determine the metabolic stability; format: in vitro ADME; conditions: after incubation with rat hepatocytes
Experimental: B-6. Hepatocyte Assay to Determine the Metabolic Stability
The metabolic stability of test compounds in the presence of hepatocytes is determined by incubating the compounds with low concentrations (preferably below or around 1 μM) and with low cell counts (preferably 1*10^6 cells/ml) in order to ensure as far as possible linear kinetic conditions in the experiment. Seven samples of the incubation solution are taken in a fixed time pattern for the […] analysis in order to determine the half-life (i.e. the degradation) of the compound in each case. Various clearance parameters (CL) and Fmax values are calculated from this half-life (see below).
The Cl and Fmax values represent a measure of the phase 1 and phase 2 metabolism of the compounds in the hepatocytes. In order to minimize the influence of the organic solvent on the enzymes in the incubation mixtures, this concentration is generally limited to 1% (acetonitrile) or 0.1% (DMSO).
A cell count for hepatocytes in the liver of 1.1*10^8 cells/g of liver is used for calculation for all species and breeds.
The calculated parameters and their meaning are:
Representative values for the compounds according to the invention from this assay after incubation of the compounds with rat hepatocytes are shown in Table B below: […]

Sequence of human neutrophil elastase (HNE) (P08246 30-267): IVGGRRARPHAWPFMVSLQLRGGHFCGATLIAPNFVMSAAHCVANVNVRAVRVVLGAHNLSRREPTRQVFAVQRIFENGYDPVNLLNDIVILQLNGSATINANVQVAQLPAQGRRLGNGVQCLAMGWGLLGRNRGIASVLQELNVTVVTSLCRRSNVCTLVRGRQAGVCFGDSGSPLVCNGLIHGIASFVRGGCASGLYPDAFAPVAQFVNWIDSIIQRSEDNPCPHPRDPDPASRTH

IC50 [1] [nM] | CLblood, calculated blood clearance (well stirred model) (rat hepatocytes) [mL/min/kg] | Fmax, maximum possible bioavailability after oral administration (well-stirred) (rat hepatocytes) [%] | SMILES
1.1 | – | – | CC1=C(C#N)C(c2ccc(C#N)cc2S(=O)(=O)CCO)NC(=O)N1c1cccc(C(F)(F)F)c1 (racemic) [Example 132, (rac)-4-[4-Cyano-2-((2-hydroxyethyl)sulfonyl)phenyl]-6-methyl-2-oxo-1-[3-(trifluoromethyl)phenyl]-1,2,3,4-tetrahydropyrimidine-5-carbonitrile]
< 0.3 | – | – | CC1=C(C#N)[C@@H](c2ccc(C#N)cc2S(C)(=O)=O)N(C(=O)OCc2ccccc2)C(=O)N1c1cccc(C(F)(F)F)c1 (stereo in doubt) [Example 120, Benzyl 5-cyano-6-[4-cyano-2-(methylsulfonyl)phenyl]-4-methyl-2-oxo-3-[3-(trifluoromethyl)phenyl]-3,6-dihydropyrimidine-1(2H)-carboxylate]
< 0.3 | – | – | CC1=C(C#N)[C@@H](c2ccc(C#N)cc2S(C)(=O)=O)N(C(=O)NC(C)(C)CO)C(=O)N1c1cccc(C(F)(F)F)c1 [Example 85]
< 0.3 | – | – | CC1=C(C#N)[C@@H](c2ccc(C#N)cc2S(C)(=O)=O)N(S(=O)(=O)c2cnn(C(F)F)c2C)C(=O)N1c1cccc(C(F)(F)F)c1 [Example 96]
< 0.3 | – | – | CC1=C(C#N)[C@@H](c2ccc(C#N)cc2S(C)(=O)=O)N(S(=O)(=O)c2ccccc2C#N)C(=O)N1c1cccc(C(F)(F)F)c1 [Example 103]
– | 1.7 | 97 | CC1=C(C#N)[C@@H](c2ccc(C#N)cc2S(C)(=O)=O)N(c2ccc(C#N)cc2)C(=O)N1c1cccc(C(F)(F)F)c1 [Example 117, (4S)-4-[4-Cyano-2-(methylsulfonyl)phenyl]-3-(4-cyanophenyl)-6-methyl-2-oxo-1-[3-(trifluoromethyl)phenyl]-1,2,3,4-tetrahydropyrimidine-5-carbonitrile]
– | 10 | 86 | CC1=C(C#N)[C@@H](c2ccc(C#N)cc2S(C)(=O)=O)N(c2cccc(C(F)(F)F)c2)C(=O)N1c1cccc(C(F)(F)F)c1 [Example 118, (4S)-4-[4-Cyano-2-(methylsulfonyl)phenyl]-6-methyl-2-oxo-1,3-bis[3-(trifluoromethyl)phenyl]-1,2,3,4-tetrahydropyrimidine-5-carbonitrile]
– | 16.7 | 75 | CN1CC2=C(C1=O)[C@@H](c1ccc(C#N)cc1S(C)(=O)=O)N(C)C(=O)N2c1cccc(C(F)(F)F)c1 [Example 123, 4-(4S)-3,6-Dimethyl-2,5-dioxo-1-[3-(trifluoromethyl)phenyl]-2,3,4,5,6,7-hexahydro-1 H-pyrrolo[3,4-d]pyrimidin-4-yl-3-(methylsulfonyl)benzonitrile]
– | 3.3 | 94 | CCS(=O)(=O)c1cc(C#N)ccc1[C@H]1NC(=O)N(c2cccc(C(F)(F)F)c2)C(C)=C1C#N [Example 127, (4S)-4-[4-Cyano-2-(ethylsulfonyl)phenyl]-6-methyl-2-oxo-1-[3-(trifluoromethyl)phenyl]-1,2,3,4-tetrahydropyrimidine-5-carbonitrile]
– | 15 | 79 | CCS(=O)(=O)c1cc(C#N)ccc1[C@@H]1C(C#N)=C(C)N(c2cccc(C(F)(F)F)c2)C(=O)N1S(C)(=O)=O [Example 129, (4S)-4-[4-Cyano-2-(ethylsulfonyl)phenyl]-6-methyl-3-(methylsulfonyl)-2-oxo-1-[3-(trifluoromethyl)phenyl]-1,2,3,4-tetrahydropyrimidine-5-carbonitrile]
< 0.3 | – | – | CC1=C(C#N)[C@@H](c2ccc(C#N)cc2S(=O)(=O)c2ccccc2)NC(=O)N1c1cccc(C(F)(F)F)c1 [Example 141, (4S)-4-{4-Cyano-2-[phenylsulfonyl]phenyl}-6-methyl-2-oxo-1-[3-(trifluoromethyl)phenyl]-1,2,3,4-tetrahydropyrimidine-5-carbonitrile]

Continued, compound first:

SMILES | IC50 [1] [nM] | CLblood, calculated blood clearance (well stirred model) (rat hepatocytes) [mL/min/kg] | Fmax, maximum possible bioavailability after oral administration (well-stirred) (rat hepatocytes) [%]
[C-]#[N+]C1=C(C)N(c2cccc(C(F)(F)F)c2)C(=O)N[C@@H]1c1ccc(C#N)cc1[S@+](C)[O-] (single isomer, unassigned; diastereomer 1) [Example 43 (Diastereomer 1)] | 0.3 | 21.7 | 69
CC(=O)C1=C(C)N(c2cccc(C(F)(F)F)c2)C(=O)N[C@@H]1c1ccc(C#N)cc1S(C)(=O)=O [Example 2, 4-{(4S)-5-Acetyl-6-methyl-2-oxo-1-[3-(trifluoromethyl)phenyl]-1,2,3,4-tetrahydropyrimidin-4-yl}-3-(methylsulfonyl)benzonitrile] | 10 | – | –
CC1=C(C#N)[C@@H](c2ccc(C#N)cc2S(C)(=O)=O)N(C(=O)NCCO)C(=O)N1c1cccc(C(F)(F)F)c1 [Example 10, (6S)-5-Cyano-6-[4-cyano-2-(methylsulfonyl)phenyl]-N-(2-hydroxyethyl)-4-methyl-2-oxo-3-[3-(trifluoromethyl)phenyl]-3,6-dihydropyrimidine-1(2H)-carboxamide] | < 0.3 | 25 | 65
CC1=C(C#N)[C@@H](c2ccc(C#N)cc2S(C)(=O)=O)N(C(=O)NN(CCO)CCO)C(=O)N1c1cccc(C(F)(F)F)c1 [Example 12, (6S)-5-Cyano-6-[4-cyano-2-(methylsulfonyl)phenyl]-N′,N′-bis(2-hydroxyethyl)-4-methyl-2-oxo-3-[3-(trifluoromethyl)phenyl]-3,6-dihydropyrimidine-1(2H)-carbohydrazide] | < 0.3 | 28.3 | 59
CC1=C(C#N)[C@@H](c2ccc(C#N)cc2S(C)(=O)=O)N(C(=O)NCCOCCO)C(=O)N1c1cccc(C(F)(F)F)c1 [Example 14, (6S)-5-Cyano-6-[4-cyano-2-(methylsulfonyl)phenyl]-N-[2-(2-hydroxyethoxy)ethyl]-4-methyl-2-oxo-3-[3-(trifluoromethyl)phenyl]-3,6-dihydropyrimidine-1(2H)-carboxamide] | < 0.3 | – | –
CC1=C(C#N)[C@@H](c2ccc(C#N)cc2S(C)(=O)=O)N(C(=O)N2CC[C@H](O)C2)C(=O)N1c1cccc(C(F)(F)F)c1 [Example 18, (4S)-4-[4-Cyano-2-(methylsulfonyl)phenyl]-3-{[(3S)-3-hydroxypyrrolidin-1-yl]carbonyl}-6-methyl-2-oxo-1-[3-(trifluoromethyl)phenyl]-1,2,3,4-tetrahydropyrimidine-5-carbonitrile] | < 0.3 | – | –
CC1=C(C#N)[C@@H](c2ccc(C#N)cc2S(C)(=O)=O)N(C(=O)N2CCN(CCO)CC2)C(=O)N1c1cccc(C(F)(F)F)c1 [Example 20, (4S)-4-[4-Cyano-2-(methylsulfonyl)phenyl]-3-{[4-(2-hydroxyethyl)piperazin-1-yl]carbonyl}-6-methyl-2-oxo-1-[3-(trifluoromethyl)phenyl]-1,2,3,4-tetrahydropyrimidine-5-carbonitrile] | 1.9 | – | –
CSc1cc(C#N)ccc1[C@H]1NC(=O)N(c2cccc(C(F)(F)F)c2)C(C)=C1C#N [Example 41, (4S)-4-[4-Cyano-2-(methylsulfanyl)phenyl]-6-methyl-2-oxo-1-[3-(trifluoromethyl)phenyl]-1,2,3,4-tetrahydropyrimidine-5-carbonitrile] | < 0.3 | – | –
CC1=C(C#N)[C@@H](c2ccc(C#N)cc2S(C)(=O)=O)N(C(=O)N2CC(O)C2)C(=O)N1c1cccc(C(F)(F)F)c1 [Example 51, (4S)-4-[4-Cyano-2-(methylsulfonyl)phenyl]-3-[(3-hydroxyazetidin-1-yl)carbonyl]-6-methyl-2-oxo-1-[3-(trifluoromethyl)phenyl]-1,2,3,4-tetrahydropyrimidine-5-carbonitrile] | < 0.3 | – | –
CC1=C(C#N)[C@@H](c2ccc(C#N)cc2S(C)(=O)=O)N(C(=O)N2CCC[C@@H](N)C2)C(=O)N1c1cccc(C(F)(F)F)c1 [Example 55, (4S)-3-[(3R)-3-Aminopiperidin-1-yl]carbonyl-4-[4-cyano-2-(methylsulfonyl)phenyl]-6-methyl-2-oxo-1-[3-(trifluoromethyl)phenyl]-1,2,3,4-tetrahydropyrimidine-5-carbonitrile] | < 0.3 | – | –
CC1=C(C#N)[C@@H](c2ccc(C#N)cc2S(C)(=O)=O)N(C(=O)N2CCN(c3ccccn3)CC2)C(=O)N1c1cccc(C(F)(F)F)c1 [Example 69] | 0.9 | – | –
CC1=C(C#N)[C@@H](c2ccc(C#N)cc2S(C)(=O)=O)N(C(=O)N(CC(C)O)CC(C)O)C(=O)N1c1cccc(C(F)(F)F)c1 (stereo partly shown) [Example 80] | < 0.3 | – | –
